From BindingDB's records for PubMed 9536032 (Sibia Neurosciences, 1998)
“And” between values parts separate entries of the source, which are not always exact repeats. Equal entries are not always repeated.

Tests used:
[1] = biological target: Glutamate receptor 3 (Homo sapiens, UniProt P42263)
[2] = biological target: Glutamate receptor 3 (Rattus norvegicus, UniProt P19492)
Sequence of Glutamate receptor 3 (Rattus norvegicus, UniProt P19492) (P19492 whole entry): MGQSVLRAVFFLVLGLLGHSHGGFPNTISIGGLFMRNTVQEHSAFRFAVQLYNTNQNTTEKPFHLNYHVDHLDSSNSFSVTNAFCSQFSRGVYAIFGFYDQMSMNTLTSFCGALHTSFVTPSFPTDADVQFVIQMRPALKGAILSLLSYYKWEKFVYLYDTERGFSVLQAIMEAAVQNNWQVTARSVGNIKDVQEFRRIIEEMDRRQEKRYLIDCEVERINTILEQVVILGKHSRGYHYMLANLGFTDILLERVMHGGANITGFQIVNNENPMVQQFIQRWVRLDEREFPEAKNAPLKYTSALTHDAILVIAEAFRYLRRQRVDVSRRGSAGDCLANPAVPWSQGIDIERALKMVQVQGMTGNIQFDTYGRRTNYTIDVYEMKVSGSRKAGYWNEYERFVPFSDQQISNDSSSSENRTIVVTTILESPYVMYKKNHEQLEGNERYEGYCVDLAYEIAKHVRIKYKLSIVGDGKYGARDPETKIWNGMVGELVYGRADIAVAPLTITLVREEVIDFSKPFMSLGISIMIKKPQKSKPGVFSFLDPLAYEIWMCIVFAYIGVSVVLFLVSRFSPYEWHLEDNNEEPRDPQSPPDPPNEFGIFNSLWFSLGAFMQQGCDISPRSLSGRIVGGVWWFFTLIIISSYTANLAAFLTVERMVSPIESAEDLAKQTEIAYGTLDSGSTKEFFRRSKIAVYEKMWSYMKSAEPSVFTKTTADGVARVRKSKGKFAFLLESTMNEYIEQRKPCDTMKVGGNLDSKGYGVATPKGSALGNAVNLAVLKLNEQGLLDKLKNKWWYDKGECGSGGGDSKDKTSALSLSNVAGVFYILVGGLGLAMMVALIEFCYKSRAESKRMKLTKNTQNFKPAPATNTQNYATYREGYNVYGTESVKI

Sequence of Glutamate receptor 3 (Homo sapiens, UniProt P42263) (P42263 whole entry): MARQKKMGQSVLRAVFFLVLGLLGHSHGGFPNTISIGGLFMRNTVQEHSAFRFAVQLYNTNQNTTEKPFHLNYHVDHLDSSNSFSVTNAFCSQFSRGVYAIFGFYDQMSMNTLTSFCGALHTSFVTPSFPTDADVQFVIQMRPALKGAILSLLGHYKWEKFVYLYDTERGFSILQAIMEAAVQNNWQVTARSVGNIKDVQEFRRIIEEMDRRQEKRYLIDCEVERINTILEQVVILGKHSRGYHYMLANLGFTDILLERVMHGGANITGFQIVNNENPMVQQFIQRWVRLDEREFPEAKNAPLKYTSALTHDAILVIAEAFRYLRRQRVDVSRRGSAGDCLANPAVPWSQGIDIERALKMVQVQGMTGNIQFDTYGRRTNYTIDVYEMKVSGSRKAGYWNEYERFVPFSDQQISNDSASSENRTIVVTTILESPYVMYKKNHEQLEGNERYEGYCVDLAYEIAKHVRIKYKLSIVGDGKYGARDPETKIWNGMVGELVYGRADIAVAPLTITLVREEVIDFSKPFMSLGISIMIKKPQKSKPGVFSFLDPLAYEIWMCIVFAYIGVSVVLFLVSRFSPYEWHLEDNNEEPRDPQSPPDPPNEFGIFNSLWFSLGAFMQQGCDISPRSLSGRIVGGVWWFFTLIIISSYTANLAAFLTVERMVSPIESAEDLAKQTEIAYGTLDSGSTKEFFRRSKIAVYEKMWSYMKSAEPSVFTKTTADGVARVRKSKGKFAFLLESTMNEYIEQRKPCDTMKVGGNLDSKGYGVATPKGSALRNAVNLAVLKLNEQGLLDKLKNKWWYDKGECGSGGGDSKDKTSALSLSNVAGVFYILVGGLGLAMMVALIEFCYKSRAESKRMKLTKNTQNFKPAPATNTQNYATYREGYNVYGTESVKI

Row | SMILES | Ki [1] | Ki [2] [nM]
1 | C/C(=C\C=C\[C@@H](C)C(=O)O)[C@H]1CN[C@H](C(=O)O)[C@H]1CC(=O)O | 2770 nM and 4590 nM | 3540
2 | CN1Cc2c(S(=O)(=O)N(C)C)cc3c(c2C1)NC(=O)C3N=O (centres undefined) | 1430 nM and > 10000 nM and 8450 nM | 782
3 | Cc1onc(OCC(=O)O)c1CC(N)C(=O)O (centres undefined) [2-Amino-3-(3-carboxymethoxy-5-methyl-isoxazol-4-yl)-propionic acid(AMOA)] | > 10000 nM | > 10000
4 | N#Cc1cc2nc(O)c(O)nc2cc1[N+](=O)[O-] [7-Cyano-3-hydroxy-6-nitro-quinoxalin-2-ol anion] | – | 470
5 | N[C@@H](Cn1cc(F)c(=O)[nH]c1=O)C(=O)O [(S)-5-Fluorowillardiine] | – | 18
6 | NC(CCC(=O)NCS(=O)(=O)O)C(=O)O (centres undefined) [CAS_90237-02-8] | > 10000 nM | > 10000
7 | O=C1N=c2cc(N(O)O)c(-n3ccnc3)cc2=NC1=O [CAS_3035216] | 630 nM and 2450 nM and 1960 nM | 407
8 | C=C(C)[C@H]1CN[C@H](C(=O)O)[C@H]1CC(=O)O [Digensaeure] | 2630 nM and 8050 nM | –
9 | CC(C)[C@H](NC(=O)[C@H](CCCCN)NC(=O)[C@@H](Cc1c[nH]c2ccccc12)NC(=O)[C@H](Cc1ccc(O)cc1)NC(=O)[C@H](CS)NC(=O)[C@H](N)Cc1ccc2ccccc2c1)C(=O)N[C@@H](CS)C(=O)N[C@@H](Cc1ccc2ccccc2c1)C(N)=O [Dnal,Cys,Tyr,DTrp,Lys,Val,Cys,Nal-nh2] | 494 nM | –
10 | CC1=NN=C(c2ccc(N)cc2)c2cc3c(cc2C1)OCO3 [GYKI-52466] | > 10000 nM | > 10000
11 | O=C1N=c2cc([N+](=O)[O-])c([N+](=O)[O-])cc2=NC1=O [NSC_3140] | 2090 nM and 1660 nM | –
12 | O=C1N=c2c3c(ccc2=C1NO)C([N+](=O)[O-])CCC3 (centres undefined) [NSC_5311098] | > 10000 nM | > 10000
